For this experiment, the target named is T1, RXFP1 (Homo sapiens, UniProt Q9HBX9).
T1 construct: OVCAR5 cells expressing endogenous RXFP1; endogenous in cells; host or cells: OVCAR5
T1 sequence (Q9HBX9 1-757): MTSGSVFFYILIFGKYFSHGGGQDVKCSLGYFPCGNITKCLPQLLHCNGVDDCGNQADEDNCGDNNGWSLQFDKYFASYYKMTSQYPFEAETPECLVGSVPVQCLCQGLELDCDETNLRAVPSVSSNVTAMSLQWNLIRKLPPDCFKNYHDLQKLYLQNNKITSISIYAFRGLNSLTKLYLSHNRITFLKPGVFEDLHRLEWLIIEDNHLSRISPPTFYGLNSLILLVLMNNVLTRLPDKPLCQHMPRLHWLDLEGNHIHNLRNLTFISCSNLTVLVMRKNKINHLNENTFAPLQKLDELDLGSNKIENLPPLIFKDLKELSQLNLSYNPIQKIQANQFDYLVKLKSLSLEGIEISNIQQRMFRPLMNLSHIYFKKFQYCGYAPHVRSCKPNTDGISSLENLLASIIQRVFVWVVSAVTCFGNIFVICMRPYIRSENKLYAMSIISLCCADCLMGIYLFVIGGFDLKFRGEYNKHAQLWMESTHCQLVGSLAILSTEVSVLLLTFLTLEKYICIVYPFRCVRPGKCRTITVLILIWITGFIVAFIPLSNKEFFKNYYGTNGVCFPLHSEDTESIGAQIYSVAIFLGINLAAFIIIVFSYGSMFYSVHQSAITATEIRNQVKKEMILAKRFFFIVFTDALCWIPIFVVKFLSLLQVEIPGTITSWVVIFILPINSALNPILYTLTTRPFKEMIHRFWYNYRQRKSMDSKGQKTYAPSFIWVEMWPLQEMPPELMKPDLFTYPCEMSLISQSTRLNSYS
The experiment in a line: OVCAR5 cAMP assay (HTRF). Type of experiment: cell-based. The conditions noted are these: for EC50: OVCAR 5 cells expressing endogenous RXFP1, cAMP readout; for Emax: OVCAR 5 cells, maximal cAMP relative to H2-relaxin. A digest of the protocol:
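Peptide agonism measured as intracellular cAMP (HTRF) after 30 min at 37° C in serum-free medium, following 40 min 1 mM IBMX preincubation of OVCAR5 cells. Nonlinear regression gave EC50; Emax % = 100 × compound maximal cAMP / H2-relaxin maximal cAMP.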
On the technique in general: Cyclic AMP is a second messenger, typically raised through Gs and lowered through Gi signalling.

Starred links: 1 amine or outer side, 2 acyl side, 3 side chain; linkers in the order of their positions; H or OH if unused. Non-standard residues stand in square brackets, D forms with d. Residues, ends and D or L forms follow the SMILES beside them. Groups on a side chain read outwards from the residue. *: point of attachment. X13 = CCCCCCCCCCCCCCCC(=O)N[C@@H](CCC(=O)N[C@@H](CCC(=O)N[C@@H](CCC(=O)N[C@@H](CCC(=O)NCCCOCCOCCOCCCNC(=O)CCC(=O)NCCCOCCOCCOCCCNC(=O)CCC(=O)NCCCOCCOCCOCCCN*)C(=O)O)C(=O)O)C(=O)O)C(=O)O; X3 = CCCCCCCCCCCCCCCCCC(=O)N[C@@H](CCC(=O)N[C@@H](CCC(=O)N[C@@H](CCC(=O)NCCCOCCOCCOCCCNC(=O)CCC(=O)NCCCOCCOCCOCCCNC(=O)CCC(=O)NCCCOCCOCCOCCCN*)C(=O)O)C(=O)O)C(=O)O; X1 = CCCCCCCCCCCCCCCC(=O)N[C@@H](CCC(=O)N[C@@H](CCC(=O)N[C@@H](CCC(=O)NCCCOCCOCCOCCCNC(=O)CCC(=O)NCCCOCCOCCOCCCNC(=O)CCC(=O)NCCCOCCOCCOCCCN*)C(=O)O)C(=O)O)C(=O)O; X4 = CCCCCCCCCCCCCCCCCC(=O)N[C@@H](CCC(=O)N[C@@H](CCC(=O)N[C@@H](CCC(=O)NCCCOCCOCCOCCCNC(=O)CCC(=O)NCCCOCCOCCOCCCN*)C(=O)O)C(=O)O)C(=O)O; Suc = O=C(CCC(=O)[*:2])[*:1]; Aib = CC(C)(N)C(=O)O

Usually EC50 stands for the concentration needed to bring the measured effect to its halfway point. High values mean a less potent agent, low ones a more potent agent. In general, Emax refers to the greatest response seen or fitted, relative to the assay's reference. As to `CCCCCCCCCCCCCCCCCC(=O)N[C@@H](CCC(=O)N[C@@H](CCC(=O)N[C@@H](CCC(=O)NCCCOCCOCCOCCCNC(=O)CCC(=O)NCCCOCCOCCOCCCNC(=O)CCC(=O)NCCCC[C@H](NC(=O)CNC(=O)[C@H](CCC(=O)O)NC(=O)C(C)(C)NC(=O)C(C)(C)NC(=O)[C@@H](NC(=O)[C@H](CCCCNC(C)=O)NC(=O)[C@H](C)NC(=O)[C@H](CCCNC(=N)N)NC(=O)[C@@H](NC(=O)[C@H](CCCCN)NC(=O)[C@H](CCC(=O)O)NC(=O)[C@H](CCCNC(=N)N)NC(=O)CNC(=O)[C@H](CCC(=O)O)NC(=O)[C@H](CC(C)C)NC(C)=O)C(C)C)[C@@H](C)CC)C(=O)N[C@@H](CO)C(=O)N[C@H](C(=O)N[C@@H](Cc1ccccc1)C(=O)N[C@@H](CO)C(=O)NC(C)(C)C(=O)N[C@@H](CCCNC(=N)N)C(=O)N[C@@H](CCCCN)C(=O)N[C@@H](CCCCNC(C)=O)C(N)=O)[C@@H](C)O)C(=O)O)C(=O)O)C(=O)O` [compound 60] (Ac-LEGREKVRAK(Ac)I[Aib][Aib]EGK([Suc-X4])STFS[Aib]RKK(Ac)-NH2), the EC50 came out at 0.15 nM and the Emax stood at 95%.
Molecule `CCCCCCCCCCCCCCCCCC(=O)N[C@@H](CCC(=O)N[C@@H](CCC(=O)N[C@@H](CCC(=O)NCCCOCCOCCOCCCNC(=O)CCC(=O)NCCCOCCOCCOCCCNC(=O)CCC(=O)NCCCOCCOCCOCCCNC(=O)CCC(=O)NCCCC[C@H](NC(=O)CNC(=O)[C@H](CCC(=O)O)NC(=O)C(C)(C)NC(=O)C(C)(C)NC(=O)[C@@H](NC(=O)[C@H](CCCCNC(C)=O)NC(=O)[C@H](C)NC(=O)[C@H](CCCNC(=N)N)NC(=O)[C@@H](NC(=O)[C@H](CCCCN)NC(=O)[C@H](CCC(=O)O)NC(=O)[C@H](CCCNC(=N)N)NC(=O)CNC(=O)[C@H](CCC(=O)O)NC(=O)[C@H](CC(C)C)NC(C)=O)C(C)C)[C@@H](C)CC)C(=O)N[C@@H](CO)C(=O)N[C@H](C(=O)N[C@@H](Cc1ccccc1)C(=O)N[C@@H](CO)C(=O)NC(C)(C)C(=O)N[C@@H](CCCNC(=N)N)C(=O)N[C@@H](CCCCN)C(=O)N[C@@H](CCCCNC(C)=O)C(N)=O)[C@@H](C)O)C(=O)O)C(=O)O)C(=O)O` [compound 61] (Ac-LEGREKVRAK(Ac)I[Aib][Aib]EGK([Suc-X3])STFS[Aib]RKK(Ac)-NH2) came in with an EC50 of 0.1 nM and an Emax of 97%.
`CCCCCCCCCCCCCCCC(=O)N[C@@H](CCC(=O)N[C@@H](CCC(=O)N[C@@H](CCC(=O)N[C@@H](CCC(=O)NCCCOCCOCCOCCCNC(=O)CCC(=O)NCCCOCCOCCOCCCNC(=O)CCC(=O)NCCCOCCOCCOCCCNC(=O)CCC(=O)NCCCC[C@H](NC(=O)CNC(=O)[C@H](CCC(=O)O)NC(=O)C(C)(C)NC(=O)C(C)(C)NC(=O)[C@@H](NC(=O)[C@H](CCCCNC(C)=O)NC(=O)[C@H](C)NC(=O)[C@H](CCCNC(=N)N)NC(=O)[C@@H](NC(=O)[C@H](CCCCN)NC(=O)[C@H](CCC(=O)O)NC(=O)[C@H](CCCNC(=N)N)NC(=O)CNC(=O)[C@H](CCC(=O)O)NC(=O)[C@H](CC(C)C)NC(C)=O)C(C)C)[C@@H](C)CC)C(=O)N[C@@H](CO)C(=O)N[C@H](C(=O)N[C@@H](Cc1c[nH]c2ccccc12)C(=O)N[C@@H](CO)C(=O)NC(C)(C)C(=O)N[C@@H](CCCNC(=N)N)C(=O)N[C@@H](CCCCN)C(=O)N[C@@H](CCCCNC(C)=O)C(N)=O)[C@@H](C)O)C(=O)O)C(=O)O)C(=O)O)C(=O)O` [compound 62] (Ac-LEGREKVRAK(Ac)I[Aib][Aib]EGK([Suc-X13])STWS[Aib]RKK(Ac)-NH2): the EC50 stood at 0.6 nM and the maximum response (Emax) is 98%.
The corresponding values for `CCCCCCCCCCCCCCCC(=O)N[C@@H](CCC(=O)N[C@@H](CCC(=O)N[C@@H](CCC(=O)NCCCOCCOCCOCCCNC(=O)CCC(=O)NCCCOCCOCCOCCCNC(=O)CCC(=O)NCCCOCCOCCOCCCNC(=O)CCC(=O)NCCCC[C@H](NC(=O)CNC(=O)[C@H](CCC(=O)O)NC(=O)C(C)(C)NC(=O)C(C)(C)NC(=O)[C@@H](NC(=O)[C@H](CCCCNC(C)=O)NC(=O)[C@H](C)NC(=O)[C@H](CCCNC(=N)N)NC(=O)[C@@H](NC(=O)[C@H](CCCCN)NC(=O)[C@H](CCC(=O)O)NC(=O)[C@H](CCCNC(=N)N)NC(=O)CNC(=O)[C@H](CCC(=O)O)NC(=O)[C@H](CC(C)C)NC(C)=O)C(C)C)[C@@H](C)CC)C(=O)N[C@@H](CO)C(=O)N[C@@H](CCC(N)=O)C(=O)N[C@@H](Cc1c[nH]c2ccccc12)C(=O)N[C@@H](CO)C(=O)NC(C)(C)C(=O)N[C@@H](CCCNC(=N)N)C(=O)N[C@@H](CCCCN)C(=O)N[C@@H](CCCCNC(C)=O)C(N)=O)C(=O)O)C(=O)O)C(=O)O` [compound 63] (Ac-LEGREKVRAK(Ac)I[Aib][Aib]EGK([Suc-X1])SQWS[Aib]RKK(Ac)-NH2) are 1.45 nM and 97%.
In turn, `CCCCCCCCCCCCCCCC(=O)N[C@@H](CCC(=O)N[C@@H](CCC(=O)N[C@@H](CCC(=O)NCCCOCCOCCOCCCNC(=O)CCC(=O)NCCCOCCOCCOCCCNC(=O)CCC(=O)NCCCOCCOCCOCCCNC(=O)CCC(=O)NCCCC[C@H](NC(=O)CNC(=O)[C@H](CCC(=O)O)NC(=O)C(C)(C)NC(=O)C(C)(C)NC(=O)[C@@H](NC(=O)[C@H](CCCCNC(C)=O)NC(=O)[C@H](C)NC(=O)[C@H](CCCNC(=N)N)NC(=O)[C@@H](NC(=O)[C@H](CCCCN)NC(=O)[C@H](CCC(=O)O)NC(=O)[C@H](CCCNC(=N)N)NC(=O)CNC(=O)[C@H](CCC(=O)O)NC(=O)[C@H](CC(C)C)NC(C)=O)C(C)C)[C@@H](C)CC)C(=O)N[C@@H](CO)C(=O)N[C@@H](CCCNC(=N)N)C(=O)N[C@@H](Cc1c[nH]c2ccccc12)C(=O)N[C@@H](CO)C(=O)NC(C)(C)C(=O)N[C@@H](CCCNC(=N)N)C(=O)N[C@@H](CCCCN)C(=O)N[C@@H](CCCCNC(C)=O)C(N)=O)C(=O)O)C(=O)O)C(=O)O` [compound 64] (Ac-LEGREKVRAK(Ac)I[Aib][Aib]EGK([Suc-X1])SRWS[Aib]RKK(Ac)-NH2) registered an EC50 of 0.52 nM and an Emax of 95%.
The corresponding values for `CCCCCCCCCCCCCCCC(=O)N[C@@H](CCC(=O)N[C@@H](CCC(=O)N[C@@H](CCC(=O)NCCCOCCOCCOCCCNC(=O)CCC(=O)NCCCOCCOCCOCCCNC(=O)CCC(=O)NCCCOCCOCCOCCCNC(=O)CCC(=O)NCCCC[C@H](NC(=O)CNC(=O)[C@H](CCC(=O)O)NC(=O)C(C)(C)NC(=O)C(C)(C)NC(=O)[C@@H](NC(=O)[C@H](CCC(N)=O)NC(=O)[C@H](CCCCNC(C)=O)NC(=O)[C@H](CCCNC(=N)N)NC(=O)[C@@H](NC(=O)[C@H](CCCCN)NC(=O)[C@H](CCC(=O)O)NC(=O)[C@H](CCCNC(=N)N)NC(=O)CNC(=O)[C@H](CCC(=O)O)NC(=O)[C@H](CC(C)C)NC(C)=O)C(C)C)[C@@H](C)CC)C(=O)N[C@@H](CO)C(=O)N[C@H](C(=O)N[C@@H](Cc1c[nH]c2ccccc12)C(=O)N[C@@H](CO)C(=O)NC(C)(C)C(=O)N[C@@H](CCCNC(=N)N)C(=O)N[C@@H](CCCCN)C(=O)N[C@@H](CCCCNC(C)=O)C(N)=O)[C@@H](C)O)C(=O)O)C(=O)O)C(=O)O` [compound 65] (Ac-LEGREKVRK(Ac)QI[Aib][Aib]EGK([Suc-X1])STWS[Aib]RKK(Ac)-NH2) are 1.19 nM and 95%.

Values taken from patent publication US11725036B2, “Modified lipidated relaxin B chain peptides and their therapeutic use” (Sanofi, priority 2018, dated 2023).
